Experimental findings from publication PMC4775225, “Bromodomain inhibition of the transcriptional coactivators CBP/EP300 as a therapeutic strategy to target the IRF4 network in multiple myeloma” (eLife, 2016) are described below.

Experiment [1] concerns the target CBP-bromodomain/BRD9 ZsGreen fusion protein (Homo sapiens, UniProt Q92793). As to the kind of experiment: cell-based.
In experiment [2] the target is T1, CBP bromodomain and histone H3.3 (Homo sapiens, UniProt Q92793).
T1 construct: NanoBRET with the isolated CBP bromodomain and histone H3.3 in 293 cells; host or cells: HEK293
As to the kind of experiment: NanoBRET, CBP bromodomain/histone H3.3 in HEK293 cells. It is filed as cell-based. As to conditions: 293 cells, CBP bromodomain and histone H3.3; n = 3 technical replicates ± SEM. The procedure:
NanoBRET was carried out using the NanoBRET Protein:Protein Interaction System (Promega, Inc.; Madison, WI) according to the manufacturer’s instructions. Briefly, HEK293 cells were transiently co-transfected with a vector for histone H3.3-HaloTag and a NanoLuc tagged CBP bromodomain expression construct. Transfected cells were plated in 96 -well plates in the presence or absence of ligand, then treated with dose titrations of indicated compounds. Readings were performed on an Envision Plate Reader (Perkin Elmer, Inc.; Waltham, MA) and BRET readings were calculated by dividing the acceptor emission value (600 nm) by the donor emission value (460/50 nm).
For orientation: In BRET a luciferase serves as donor, and the signal depends on an acceptor being close.

Experiment [3] concerns the target CBP bromodomain (Homo sapiens, UniProt Q92793). As to the kind of experiment: biochemical. As to conditions: read-out: DTm.
In experiment [4] the target is T2, CBP bromodomain (amino acids 1082–1197) (Homo sapiens, UniProt Q92793).
T2 construct: His-Flag-tagged CBP bromodomain (amino acids 1082–1197)
As to the kind of experiment: AlphaLISA, acetylated peptide binding to CBP bromodomain. As to the method: Compound at varying concentrations were dispensed into 384 well Proxiplates (Perkin Elmer) using Echo technology (Labcyte, Inc.; Sunnyvale, CA). For CBP assays, 0.5 μM His-Flag-tagged CBP bromodomain (amino acids 1082–1197) was incubated with 0.003 μM H4-TetraAc-biotin for 20 min at room temperature in 1x reaction buffer (50 mM HEPES pH 7.5, 1 mM TCEP, 0.069 mM Brij-35, 150 mM NaCl, and 0.1 mg/ml BSA). Streptavidin acceptor beads and nickel donor beads (Perkin Elmer) were added to 15 μg/ml with a Combi Multidrop dispenser. Plates were sealed and incubated at 90 min in the dark at room temperature, and plates were read on an Envision plate reader (Perkin Elmer) according to manufacturer’s instructions. For the BET assays, the protocol was similar except that BET family bromodomains were used at 0.03 μM (BRD4-BD1) and incubated with 0.2 μM H4-TetraAc-biotin for 20 min in reaction buffer (40 mM HEPES pH7.0, 1 mM DTT, 0.069 mM Brij-35, 40 mM NaCl, and 0.1 mg/ml BSA). Streptavidin donor beads and Anti-Flag Acceptor beads (Perkin Elmer) were added to 10 μg/ml, and then plates were sealed and incubated in the dark for 60 min prior to reading on the Envision.
For orientation: Alpha assays give light when donor and acceptor beads are brought close together.

For experiment [5], the system named is H3K18 and H3K27 acetylation in LP-1 cells. As to the kind of experiment: Western analysis of global histone acetylation. It is filed as cell-based, human. The following applies: LP-1, 16 hr. As to the method: Whole cell extracts were prepared by lysis in RIPA buffer + EDTA (Boston Bioproducts, Inc.; Ashland, MA) with protease inhibitor cocktail (Roche Life Sciences; Indianapolis, IN). Extracts were subjected to SDS-PAGE and Western analysis with MYC (Cell Signaling (Danvers, MA) #5605), IRF4 (Cell Signaling #4964 or #4948), GAPDH (Life Technologies AM4300), CBP (Santa Cruz (Dallas, TX) sc-369), EP300 (Santa Cruz sc-584), or β-actin (Life Technologies AM4302) primary antibodies. For histone analysis, extracts were prepared by sulfuric acid extraction of permeablized nuclei, and extracted histones were subjected to SDS-PAGE and Western analysis with H3K18ac (Cell Signaling #9675), H3K27ac (EMD Millipore (Billerica, MA) 07–360), or H4 (Abcam (Cambridge, MA) 31830). Blots were incubated with DyLight conjugated secondary antibodies, imaged and quantified with a Licor fluorescence imager (Licor, Inc.; Lincoln, NE), or with HRP- conjugated secondary antibodies for ECL visualization.

Experiment [6] concerns Nalm6. As to the kind of experiment: Viability, resazurin, 6 days. It is filed as cell-based. The following applies: Homo sapiens, NALM-6, 144 h, Nalm6, ALL. As to the method:
Cells were plated at 5000–10000 cells per well of 96-well plates containing titrations of the compounds as indicated. After incubation, the cells were incubated with 500 μg/ml resazurin (Sigma) in PBS for 2–8 hr, and fluorescence was measured (Ex 530 nm, Em 590 nm). Cell cycle analysis was performed as described previously ([Mertz et al., 2011]). For visualization, DNA content histograms were generated with GraphPad Prism. Dose-response curves were generated by plotting the normalized percent growth, percent sub-G1 and percent increase in G0/G1 at each dose values. GI50 values were determined as the concentration at which viability was 50% of the DMSO value and calculated by a four-parameter non-linear regression model in GraphPad Prism.
A general note: The colour change of resazurin is a common sign of viable cells or microbes.

T1 sequence (Q92793 1085-1192 limits assumed): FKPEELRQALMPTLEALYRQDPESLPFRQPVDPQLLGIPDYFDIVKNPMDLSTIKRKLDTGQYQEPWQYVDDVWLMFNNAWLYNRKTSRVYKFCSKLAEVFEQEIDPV
Chain of CBP bromodomain (Q92793 1085-1192 limits assumed): as above
Chain of CBP-bromodomain/BRD9 ZsGreen fusion protein (Q92793 1085-1192): as the sequence (Q92793 1085-1192 limits assumed) above
Chain of CBP-bromodomain/BRD9 ZsGreen fusion protein (Q9H8M2 with tags, fused parts or gaps partner): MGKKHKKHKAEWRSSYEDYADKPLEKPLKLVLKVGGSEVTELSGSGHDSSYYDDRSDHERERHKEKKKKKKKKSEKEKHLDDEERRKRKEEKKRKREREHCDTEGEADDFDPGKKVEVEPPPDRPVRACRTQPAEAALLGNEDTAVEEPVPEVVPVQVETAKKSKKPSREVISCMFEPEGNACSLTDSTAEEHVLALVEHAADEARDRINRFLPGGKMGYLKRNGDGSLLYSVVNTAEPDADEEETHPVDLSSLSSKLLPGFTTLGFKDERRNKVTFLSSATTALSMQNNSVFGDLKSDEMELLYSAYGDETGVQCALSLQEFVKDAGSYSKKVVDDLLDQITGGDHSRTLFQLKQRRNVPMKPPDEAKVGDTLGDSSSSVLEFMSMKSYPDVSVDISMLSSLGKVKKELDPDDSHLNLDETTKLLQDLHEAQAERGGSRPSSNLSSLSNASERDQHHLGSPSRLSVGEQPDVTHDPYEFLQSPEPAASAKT
T2 sequence (Q92793 1082-1197): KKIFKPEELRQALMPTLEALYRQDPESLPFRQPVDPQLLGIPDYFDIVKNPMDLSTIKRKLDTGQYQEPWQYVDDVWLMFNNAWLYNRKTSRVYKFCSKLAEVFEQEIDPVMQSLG

As for `CCC(=O)N1CCOc2c(cc(-c3ccc(OC)c(OC)c3)cc2OC[C@H]2CCCN(C)C2)C1` [I-CBP112], the EC50 in experiment [1] was determined as 1700 ± 340 nM. The “IC50 (μM), CBP BRET (EC50, NanoBRET)” value in experiment [2] was found to be 0.25 ± 0.03 µM. Further, the ΔTm at 20 µM in experiment [3] was 4.52 °C. The compound also yielded an IC50 in experiment [4] of 190 ± 20 nM.
On to `COc1ccc(CCc2nc3cc(-c4c(C)noc4C)ccc3n2C[C@H](C)N2CCOCC2)cc1Cl` [SGC-CBP30], for which, in experiment [5], the “changes in the global levels of H3K18 or H3K27 acetylation” value is “did not observe any significant changes”. In addition, the GI50 in experiment [6] is 3860 nM.

Broadly, the EC50 is the midpoint of the concentration-response curve. The low end stands for higher potency in that assay, the high end for lower potency in that assay. The term IC50 denotes the concentration needed to halve the response being measured. Read a high IC50 as a need for much substance. The GI50 is the concentration giving 50% growth inhibition. A higher GI50 goes with less potent growth inhibition.
